Assay results from PubChem BioAssay (NCI).
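Results reflect a 48-hour exposure of cells in 96-well plates to compound at five concentrations. Here, GI50 denotes the concentration required for 50% inhibition of growth. TGI: concentration producing complete growth inhibition.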

Key:
Test in all cases: inhibition of tumour cell growth, NCI panel, 48 h
786-0 renal = tested on: 786-0 renal
A498 renal = tested on: A498 renal
A549 NSCLC = tested on: A549 NSCLC
ACHN renal = tested on: ACHN renal
BT-549 breast = tested on: BT-549 breast
CAKI-1 renal = tested on: CAKI-1 renal
CCRF-CEM leukemia = tested on: CCRF-CEM leukemia
COLO 205 colon = tested on: COLO 205 colon
DU-145 prostate = tested on: DU-145 prostate
EKVX NSCLC = tested on: EKVX NSCLC
HCC-2998 colon = tested on: HCC-2998 colon
HCT-116 colon = tested on: HCT-116 colon
HCT-15 colon = tested on: HCT-15 colon
HL-60(TB) leukemia = tested on: HL-60(TB) leukemia
HOP-62 NSCLC = tested on: HOP-62 NSCLC
HOP-92 NSCLC = tested on: HOP-92 NSCLC
HS 578T breast = tested on: HS 578T breast
HT29 colon = tested on: HT29 colon
IGROV1 ovarian = tested on: IGROV1 ovarian
K-562 leukemia = tested on: K-562 leukemia
KM12 colon = tested on: KM12 colon
LOX IMVI melanoma = tested on: LOX IMVI melanoma
M14 melanoma = tested on: M14 melanoma
MALME-3M melanoma = tested on: MALME-3M melanoma
MCF7 breast = tested on: MCF7 breast
MDA-MB-231 breast = tested on: MDA-MB-231 breast
MDA-MB-435 = tested on: MDA-MB-435
MOLT-4 leukemia = tested on: MOLT-4 leukemia
NCI-H226 lung = tested on: NCI-H226 lung
NCI-H23 lung = tested on: NCI-H23 lung
NCI-H460 lung = tested on: NCI-H460 lung
NCI-H522 lung = tested on: NCI-H522 lung
NCI/ADR-RES ovarian = tested on: NCI/ADR-RES ovarian
OVCAR-4 ovarian = tested on: OVCAR-4 ovarian
OVCAR-5 ovarian = tested on: OVCAR-5 ovarian
OVCAR-8 ovarian = tested on: OVCAR-8 ovarian
PC-3 prostate = tested on: PC-3 prostate
RPMI-8226 leukemia = tested on: RPMI-8226 leukemia
RXF 393 renal = tested on: RXF 393 renal
SF-268 CNS = tested on: SF-268 CNS
SF-295 CNS = tested on: SF-295 CNS
SF-539 CNS = tested on: SF-539 CNS
SK-MEL-2 melanoma = tested on: SK-MEL-2 melanoma
SK-MEL-28 melanoma = tested on: SK-MEL-28 melanoma
SK-MEL-5 melanoma = tested on: SK-MEL-5 melanoma
SK-OV-3 ovarian = tested on: SK-OV-3 ovarian
SN12C renal = tested on: SN12C renal
SNB-19 CNS = tested on: SNB-19 CNS
SNB-75 CNS = tested on: SNB-75 CNS
SR leukemia = tested on: SR leukemia
SW-620 colon = tested on: SW-620 colon
T-47D breast = tested on: T-47D breast
TK-10 renal = tested on: TK-10 renal
U251 CNS = tested on: U251 CNS
UACC-257 melanoma = tested on: UACC-257 melanoma
UACC-62 melanoma = tested on: UACC-62 melanoma
UO-31 renal = tested on: UO-31 renal

## C#Cc1ccc(C(=O)NCc2ccc(/C=C/C(=O)c3nccn3C)cc2)cc1
786-0 renal
  GI50: 4.48 µM
  TGI: > 14.3 µM
A498 renal
  GI50: 2.12 µM
  TGI: > 14.3 µM
A549 NSCLC
  GI50: 4.6 µM
  TGI: > 14.3 µM
ACHN renal
  GI50: 4.8 µM
  TGI: > 14.3 µM
BT-549 breast
  GI50: 4.06 µM
  TGI: > 14.3 µM
CAKI-1 renal
  GI50: 5.97 µM
  TGI: > 14.3 µM
CCRF-CEM leukemia
  GI50: 3.68 µM
  TGI: > 14.3 µM
COLO 205 colon
  GI50: 3.6 µM
  TGI: 12.7 µM
DU-145 prostate
  GI50: 4.83 µM
  TGI: > 14.3 µM
EKVX NSCLC
  GI50: 5.22 µM
  TGI: > 14.3 µM
HCC-2998 colon
  GI50: 3.32 µM
  TGI: 10.7 µM
HCT-116 colon
  GI50: 4.56 µM
  TGI: > 14.3 µM
HCT-15 colon
  GI50: 2.39 µM
  TGI: > 14.3 µM
HL-60(TB) leukemia
  GI50: 3.5 µM
  TGI: > 14.3 µM
HOP-62 NSCLC
  GI50: 4.33 µM
  TGI: > 14.3 µM
HOP-92 NSCLC
  GI50: 3.77 µM
  TGI: > 14.3 µM
HS 578T breast
  GI50: 4.75 µM
  TGI: > 14.3 µM
HT29 colon
  GI50: 4.61 µM
  TGI: > 14.3 µM
IGROV1 ovarian
  GI50: 3.77 µM
  TGI: > 14.3 µM
K-562 leukemia
  GI50: 3.21 µM
  TGI: > 14.3 µM
KM12 colon
  GI50: 2.67 µM
  TGI: 8.57 µM
LOX IMVI melanoma
  GI50: 0.543 µM
  TGI: 2.4 µM
M14 melanoma
  GI50: 7.91 µM
  TGI: > 14.3 µM
MALME-3M melanoma
  GI50: > 14.3 µM
  TGI: > 14.3 µM
MCF7 breast
  GI50: 2.7 µM
  TGI: > 14.3 µM
MDA-MB-231 breast
  GI50: 3.97 µM
  TGI: > 14.3 µM
MDA-MB-435
  GI50: 4.15 µM
  TGI: > 14.3 µM
MOLT-4 leukemia
  GI50: 4.2 µM
  TGI: > 14.3 µM
NCI-H226 lung
  GI50: 5.03 µM
  TGI: > 14.3 µM
NCI-H23 lung
  GI50: 3.48 µM
  TGI: > 14.3 µM
NCI-H460 lung
  GI50: 3.24 µM
  TGI: 9.03 µM
NCI-H522 lung
  GI50: 6.16 µM
  TGI: > 14.3 µM
NCI/ADR-RES ovarian
  GI50: 3.67 µM
  TGI: > 14.3 µM
OVCAR-4 ovarian
  GI50: 5.71 µM
  TGI: > 14.3 µM
OVCAR-5 ovarian
  GI50: 4.75 µM
  TGI: > 14.3 µM
OVCAR-8 ovarian
  GI50: 3.11 µM
  TGI: 8.27 µM
PC-3 prostate
  GI50: 5.36 µM
  TGI: > 14.3 µM
RPMI-8226 leukemia
  GI50: 2.37 µM
  TGI: > 14.3 µM
RXF 393 renal
  GI50: 3.44 µM
  TGI: 14.2 µM
SF-268 CNS
  GI50: 3.36 µM
  TGI: 12.2 µM
SF-295 CNS
  GI50: 3.65 µM
  TGI: 13.2 µM
SF-539 CNS
  GI50: 2.65 µM
  TGI: 6.24 µM
SK-MEL-2 melanoma
  GI50: > 14.3 µM
  TGI: > 14.3 µM
SK-MEL-28 melanoma
  GI50: 6.16 µM
  TGI: > 14.3 µM
SK-MEL-5 melanoma
  GI50: > 14.3 µM
  TGI: > 14.3 µM
SK-OV-3 ovarian
  GI50: 8.34 µM
  TGI: > 14.3 µM
SN12C renal
  GI50: 4.34 µM
  TGI: > 14.3 µM
SNB-19 CNS
  GI50: 3.1 µM
  TGI: > 14.3 µM
SNB-75 CNS
  GI50: 2.19 µM
  TGI: 10.7 µM
SR leukemia
  GI50: 0.93 µM
  TGI: > 14.3 µM
SW-620 colon
  GI50: 4.31 µM
  TGI: > 14.3 µM
T-47D breast
  GI50: 6 µM
  TGI: > 14.3 µM
TK-10 renal
  GI50: 5.42 µM
  TGI: > 14.3 µM
U251 CNS
  GI50: 2.15 µM
  TGI: > 14.3 µM
UACC-257 melanoma
  GI50: > 14.3 µM
  TGI: > 14.3 µM
UACC-62 melanoma
  GI50: 6.27 µM
  TGI: > 14.3 µM
UO-31 renal
  GI50: 3.91 µM
  TGI: > 14.3 µM
